# Data taken from PubChem BioAssay AID1053129 (The Scripps Research Institute Molecular Screening Center, 2014).
# Active and inactive are the calls of the source. The rule behind the calls is not given here.
# Target: Fibrinogen beta chain (Homo sapiens) (UniProt P02675)
# Test: inhibitors of Tn6 peptide binding to fibrin DD(E), late-stage follow-up, biochemical, fluorescence polarization, human fibrin, dose response (AID 1053129)
# Conditions: FP, Tn6 cyclic peptide binding to DD(E)
# Fibrinogen beta chain (Homo sapiens), sequence (P02675 whole entry, looked up): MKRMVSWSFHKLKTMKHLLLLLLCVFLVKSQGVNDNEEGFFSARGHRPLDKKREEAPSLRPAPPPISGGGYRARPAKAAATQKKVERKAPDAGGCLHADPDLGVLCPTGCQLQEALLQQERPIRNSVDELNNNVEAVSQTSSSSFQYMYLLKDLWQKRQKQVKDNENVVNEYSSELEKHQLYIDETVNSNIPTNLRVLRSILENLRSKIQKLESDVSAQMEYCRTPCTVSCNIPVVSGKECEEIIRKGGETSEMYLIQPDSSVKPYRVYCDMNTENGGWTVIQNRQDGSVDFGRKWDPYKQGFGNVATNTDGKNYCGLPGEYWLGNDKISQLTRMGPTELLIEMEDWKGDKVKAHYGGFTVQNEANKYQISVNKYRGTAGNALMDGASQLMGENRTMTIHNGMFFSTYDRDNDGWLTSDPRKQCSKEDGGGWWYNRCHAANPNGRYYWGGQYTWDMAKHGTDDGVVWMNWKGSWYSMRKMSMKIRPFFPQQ
row,Compound,IC50
1,Cc1cc2c(cc1S(=O)(=O)N1CCN(c3cccc(C)c3C)CC1)OCCN2C,> 83.3 µM (inactive)
2,CCn1c(CSc2n[nH]c(N)n2)nc2cc(C(=O)O)ccc21,7.39 µM
3,NS(=O)(=O)c1ccc(NS(=O)(=O)c2ccc(NC(=O)c3ccc(-c4ccccc4)cc3)cc2)cc1,3.43 µM
4,O=C(O)CCCNc1cc(N2CCN(C(=O)c3ccco3)CC2)c2noc3c2c1C(=O)c1ccccc1-3,6.78 µM

# More lines, now with the values ahead:
row,IC50,Compound
1,> 83.3 µM (inactive),Cc1cc2cc(CNS(=O)(=O)c3ccc4ccccc4c3)ccc2n1C
2,3.5 µM,N#CC1=C(N)Oc2ccc3ccc(O)cc3c2C1c1ccsc1 (stereo not given)
3,> 83.3 µM (inactive),COc1ccc2ccccc2c1C(O)c1nccn1C (stereo not given)
4,> 83.3 µM (inactive),Cc1cc2cc(CNC(=O)c3ccc(S(=O)(=O)N4CCOCC4)cc3)ccc2n1C
5,> 83.3 µM (inactive),Cc1cc(C)c(S(=O)(=O)NCCn2c(C)cc3ccccc32)c(C)c1
6,inactive,CN1C(=O)NC(c2ccccc2[N+](=O)[O-])C2=C1CCCC2=O (stereo not given)
